Data from patent US20120232062A1, “AZAINDAZOLES TO TREAT FLAVIVIRIDAE VIRUS INFECTION” (EIGER BIOPHARMACEUTICALS, INC., priority 2009, published 2012).
Read-outs that look alike come from different tables or passages of the source.

Tested on: HCV genotype 1b
Assay: HCV 1b replicon luciferase assay
Type: cell-based
Conditions: Table 1, Huh7 HCV 1b replicon, luciferase reporter, 48 hours, read-out: 1b EC50
Description: A suitable 1b HCV RNA replicon assay uses the Huh7 cell line which contains an HCV 1b RNA replicon with a stable luciferase (LUC) reporter. This construct contains modifications that make the cell line more robust and provides stable LUC expression for antiviral screening. The LUC reporter is used as an indirect measure of HCV replication. The activity of the LUC reporter is directly proportional to HCV RNA levels and positive control antiviral compounds behave comparably using LUC endpoints. […]
Fresh growth medium is prepared just before use. The container used in the procedure is a 10 cm diameter culture dish. HCV replicon reporter cell lines are used. Prepare complete medium: add FBS and appropriate additives as described in “Culture Media”, below. Pre-warm the medium in a 37° C. thermostat water bath. Remove the dish from a 37° C. CO2 incubator. Check the cell name and complete medium and passage number marked on the dish. Aspirate the medium carefully and add 1 ml PBS to rinse the cells. Remove and discard the solution and add 1 ml of 0.25% Trypsin/0.02% EDTA. Rinse the cells with the added Trypsin/EDTA to ensure all the cells have been rinsed. Remove the Trypsin/EDTA with a vacuum pump and incubate at 37° C. for 3-5 minutes. Examine the cell morphology under an inverted microscope to confirm that a single cell suspension is clearly visible. Add 3 ml of complete medium to the dish and suspend the cell by gentle pipetting. Count the cell numbers with a hematometer. Adjust cell density to 100 k/ml by adding appropriate volume of the complete medium. Add 100 μl of cell suspension to each well of a 96-well white plate; the cell density is thus 10 k per well. Mark the plate with cell name, passage number, seeding density, date and the name of the operator. Place the 96-well assay plate in 37° C. 5% CO2 incubator for 24 hours.
Compounds are prepared or provided at 25 mM in 100% DMSO. This is the compound stock solution. The dilution procedure should be performed in a cell culture hood. Dispense the stock solution into the second column of a 96-well plate. Prepare 9-step (10 concentrations total), 5-fold serial dilutions by transferring 10 μA of the compound into the next well containing 40 μA of DMSO. Repeat for all compounds. Aspirate 2 μl of the above compound solution from each well and add into 198 μl complete media using a 12-channel pipetter to obtain the 10-fold concentration compound solution with 1% DMSO, mix well.
Remove the 96-well assay plate from the 37° C./5% CO2 incubator, examine the cell morphology under an inverted microscope. In a cell culture hood, add 10 μl of the 10× concentration compounds solution into each well on the 96-well assay plate. All compound's dose responses are done in duplicate. The starting final concentration of the compounds is 25 μM, and DMSO final concentration 0.1%. Mark the plate with compound code(s) and concentrations. Place the 96-well assay plate into CO2 incubator for 48 hours. Add 30 μl of Stead-Glo Luciferase System (Promega) reagent to each well and mix by gentle shaking on a plate shaker for 5 minutes to allow throughout cell lysis. Measure the luminescence with Envision (Perkin Elmer) with an integration time of 2 seconds. Record and analyze the data.
The cell culture media is DMEM complete: DMEM (Life Technologies #41965-039) supplemented with 10% FCS, 2 mM Glutamin (Life Technologies #25030-024), Penicillin (100 IU/ml)/Streptomycin (100 μg/ml) (Life Technologies #15140-114) and 1× nonessential amino acids (Life Technologies #11140-035). G418 (“Geneticin”, Life Technologies): concentrations are given as weight per volume of the original substance. Specific activity of a typical batch is ca. 700 μg/mg as stated by the manufacturer. […] Therefore each new batch of G418 should be tested individually e.g. in an electroporation experiment using different selection conditions (0.2-1 mg/ml).

Row | Compound | EC50 (Hepatitis C virus, Huh-7, 48 h) [µM] | EC50 [µM]
1 | CCn1nc(C(=O)NC2CCNCC2)c2ccc(N3CCCCCC3)nc21 [compound 856] | 3.7 | 
2 | CC(C)n1nc(C(=O)NC2CCNCC2)c2ccc(N3CCCCCC3)nc21 [compound 857] | 3.1 | 
3 | CCCn1nc(C(=O)NC2CCNCC2)c2ccc(N3CCCCCC3)nc21 [compound 858] | 3.3 | 
4 | CCC(CC)n1nc(C(=O)NC2CCNCC2)c2ccc(N3CCCCCC3)nc21 [compound 859] | 2.8 | 
5 | CCN(CC)c1ccc2c(C(=O)NC3CCNCC3)nn(C)c2n1 [compound 860] | 2.9 | 
6 | Cn1nc(C(=O)NC2CCNCC2)c2ccc(N3CCCCC3)nc21 [compound 861] | 7.3 | 
7 | Cn1nc(C(=O)NC2CCNCC2)c2ccc(NC3CCCCC3)nc21 [compound 862] | 2.6 | 
8 | Cn1nc(C(=O)NC2CCNCC2)c2ccc(NCC3CCCCC3)nc21 [compound 863] | 1.3 | 
9 | Cn1nc(C(=O)NC2CCNCC2)c2ccc(NC3CCCCCC3)nc21 [compound 866] | 1.1 | 
10 | CN(CC1CCCCC1)c1ccc2c(C(=O)NC3CCNCC3)nn(C)c2n1 [compound 867] | 0.934 | 
11 | Cn1nc(C(=O)NC2CCNCC2)c2ccc(N3CCC(Cc4ccccc4)CC3)nc21 [compound 868] | 2.4 | 
12 | Cn1nc(C(=O)NCC2CCCNC2)c2ccc(N3CCCCCC3)nc21 (centres unmarked) [compound 872] | 8.1 | 
13 | Cn1nc(C(=O)NC2CCNCC2)c2ccc(OC3CCCCCC3)nc21 [compound 873] | 4.7 | 
14 | CC1CCC(Oc2ccc3c(C(=O)NC4CCNCC4)nn(C)c3n2)C(C(C)C)C1 (centres unmarked) [compound 874] | 1.7 | 
15 | O=C(NC1CCNCC1)c1nn2c3nc(ccc13)OC/C=C\CCCCC2 [compound 876] | 7.5 | 
16 | O=C(NC1CCNCC1)c1nn2c3nc(ccc13)OC/C=C/CCCCC2 [compound 877] | 3.3 | 
17 | CC1CCCCC1Oc1ccc2c(C(=O)NC3CCNCC3)nn(C)c2n1 (centres unmarked) [compound 878] | 2.8 | 
18 | CC1CCC(Oc2ccc3c(C(=O)NC4CCNCC4)nn(C)c3n2)CC1 (centres unmarked) [compound 879] | 3.9 | 
19 | Cn1nc(C(=O)NC2CC3CCCC(C2)N3)c2ccc(N3CCCCCC3)nc21 (centres unmarked) [compound 880] |  | 8.1
20 | Cn1nc(C(=O)NC2CCNCC2)c2ccc(NC3CCCCCCC3)nc21 [compound 885] | 0.889 | 
21 | Cn1nc(C(=O)NC2CCNCC2)c2ccc(N3CCCCCCC3)nc21 [compound 886] | 0.798 | 
22 | CN(c1ccc2c(C(=O)NC3CCNCC3)nn(C)c2n1)C1CCCCCC1 [compound 891] | 1.1 | 

Row | Compound | EC50 (Hepatitis C virus, Huh-7, 48 h) [µM] | EC50 [µM]
23 | CN(c1ccc2c(C(=O)NC3CCNCC3)nn(C)c2n1)C1CCCCC1 [compound 892] | 1.5 | 
24 | CN(c1ccc2c(C(=O)NC3CCNCC3)nn(C)c2n1)C1CCCCCCC1 [compound 893] | 1.1 | 
25 | Cn1nc(CN[C@H]2CCNC2)c2ccc(N3CCCCCC3)nc21 [compound 908] | 8.7 | 
26 | CC1CC(NCc2nn(C)c3nc(N4CCCCCC4)ccc23)CCN1 (centres unmarked) [compound 909] | 4 | 
27 | CN1C2CCC1CC(NCc1nn(C)c3nc(N4CCCCCC4)ccc13)C2 (centres unmarked) [compound 910] | 3.9 | 
28 | Cn1nc(C(=O)NC2CCNCC2)c2ccc(OC3CCCC3)nc21 [compound 912] | 6.9 | 
29 | Cn1nc(C(=O)NC2CCNCC2)c2ccc(OC3CCCCC3)nc21 [compound 913] |  | 4.7
30 | CCC(CC)Oc1ccc2c(NC(=O)C3CCCNC3)nn(C)c2n1 (centres unmarked) [compound 938] | 8.2 | 
31 | CCC(CC)Oc1ccc2c(NC(=O)c3ccncc3)nn(C)c2n1 [compound 939] | 4.7 | 
32 | CCC(CC)Oc1ccc2c(NC(=O)c3ccccc3)nn(C)c2n1 [compound 942] | 8.6 | 
33 | C[C@@H]1CCC[C@H]1Oc1ccc2c(C(=O)NC3CCNCC3)nn(C)c2n1 [compound 945] | 2.6 | 
34 | CC1CCC(Oc2ccc3c(C(=O)NC4CCNCC4)nn(C)c3n2)C1 (centres unmarked) [compound 946] | 3.7 | 
35 | CCC(CC)Oc1ccc2c(NC(=O)[C@H]3CC[C@H](N)CC3)nn(C)c2n1 [compound 949] | 5.7 | 
36 | CCC(CC)Oc1ccc2c(NC(=O)C3CC(C)(C)NC(C)(C)C3)nn(C)c2n1 [compound 950] | 7.9 | 
37 | CCC(CC)Oc1ccc2c(NC(=O)[C@H]3CC[C@@H](N)CC3)nn(C)c2n1 [compound 951] | 7.8 | 
38 | CCC(CC)Oc1ccc2c(NC(=O)CC3CCCNC3)nn(C)c2n1 (centres unmarked) [compound 952] | 10 | 
39 | CCC(CC)Oc1ccc2c(NC(=O)CC3CCNCC3)nn(C)c2n1 [compound 953] | 6.4 | 
40 | Cn1nc(C(=O)NC2CCNCC2)c2ccc(Oc3ccccc3)nc21 [compound 955] | 3.4 | 
41 | CCC(CC)Oc1ccc2c(NC(=O)c3ccc(C)s3)nn(C)c2n1 [compound 956] |  | 21
42 | CCC(CC)Oc1ccc2c(NC(=O)C3CCNCC3)nn(C)c2n1 [compound 962] | 4.4 | 
43 | CCC(CC)Oc1ccc2c(NC(=O)c3ccc(C)s3)nn(C)c2n1 [compound 963] |  | 2.7
44 | Cn1nc(C(=O)NC2CCNCC2)c2ccc(OCc3ccccc3-c3ccccc3)nc21 [compound 969] | 1.3 | 

Row | Compound | EC50 (Hepatitis C virus, Huh-7, 48 h) [µM] | EC50 [µM]
45 | Cn1nc(C(=O)NC2CCN(Cc3cccc(-c4ccccc4)c3)CC2)c2ccc(OCc3cccc(-c4ccccc4)c3)nc21 [compound 970] | 8.9 | 
46 | Cn1nc(C(=O)NC2CCN(Cc3ccc(-c4ccccc4)cc3)CC2)c2ccc(O)nc21 [compound 972] | 3.7 | 
47 | Cn1nc(C(=O)NC2CCN(Cc3ccc(-c4ccccc4)cc3)CC2)c2ccc(OCc3ccc(-c4ccccc4)cc3)nc21 [compound 973] | 5.4 | 
48 | Cn1nc(C(=O)NC2CCNCC2)c2ccc(OCc3ccc(-c4ccccc4)cc3)nc21 [compound 974] | 4.5 | 
49 | Cn1nc(CNC2CCNCC2)c2ccc(N3CCCCCC3)nc21 [compound 976] | 4.7 | 
50 | Cn1nc(C(=O)N[C@@H]2C[C@H]3CC[C@@H](C2)N3)c2ccc(N3CCCCCC3)nc21 [compound 979] | 4.9 | 
51 | Cn1nc(C(=O)N[C@H]2C[C@H]3CC[C@@H](C2)N3)c2ccc(N3CCCCCC3)nc21 [compound 984] | 2.2 | 
52 | Cn1nc(COCC2CCNCC2)c2ccc(N3CCCCCC3)nc21 [compound 985] | 7.6 | 
53 | Cn1nc(COCC2CCCNC2)c2ccc(N3CCCCCC3)nc21 (centres unmarked) [compound 986] | 7.9 | 
54 | O=C(NC1CCNCC1)c1nn(S(=O)(=O)C2CCCCC2)c2nc(N3CCCCCC3)ccc12 [compound 988] | 5.4 | 
55 | Cn1nc(C(=O)NC2CCNCC2)c2cc(NC3CCCCC3)cnc21 [compound 991] | 9 | 
56 | Cn1nc(C(=O)NC2CCNCC2)c2ccc(N3CCCC(c4ccccc4)CC3)nc21 (centres unmarked) [compound 1026] | 1.6 | 
57 | Cn1nc(C(=O)NC2CCN(C(=O)C3CCCCC3)CC2)c2ccc(N3CCCCCC3)nc21 [compound 1030] | 4.8 | 
58 | Cn1nc(C(=O)NC2CCN(CCCC3CCCCC3)CC2)c2ccc(N3CCCCCC3)nc21 [compound 1031] | 0.69 | 
59 | Cn1nc(NC(=O)C2CCNCC2)c2ccc(N3CCCCCC3)nc21 [compound 1035] | 5.7 | 
60 | Cn1nc(NC(=O)C2CCCNC2)c2ccc(N3CCCCCC3)nc21 (centres unmarked) [compound 1036] | 8.7 | 
61 | Cn1nc(C(=O)NC2CCN(Cc3ccccc3Cl)CC2)c2ccc(N3CCCCCC3)nc21 [compound 1037] | 3.4 | 
62 | Cn1nc(C(=O)NC2CCN(Cc3cccc(Cl)c3)CC2)c2ccc(N3CCCCCC3)nc21 [compound 1038] | 3.4 | 
63 | Cc1ccc(CN2CCC(NC(=O)c3nn(C)c4nc(N5CCCCCC5)ccc34)CC2)cc1 [compound 1039] |  | 2.6
64 | Cn1nc(C(=O)NC2CCN(C3CCCC3)CC2)c2ccc(N3CCCCCC3)nc21 [compound 1040] | 2.8 | 
65 | Cn1nc(C(=O)NC2CCN(CCCN3CCCCC3)CC2)c2ccc(N3CCCCCC3)nc21 [compound 1041] | 1.1 | 
